According to patent publication US11180521B2, “Nicotinamide riboside analogs, pharmaceutical compositions, and uses thereof” (Metro International Biotech, LLC, priority 2018, dated 2021):

Columns and labels:
Assay type in all cases: in vivo, C57BL/6 mice
[1] = PK/PD duration of effect study, single oral gavage dose: administered compound level in skeletal muscle; parameters: key to transcyclohexyl NaR dimer concentration: BQL: Below quantitation limit; BDL: Below Detection Limit, No Peak Detected; settings: pre-dose BQL
Description: (§1) Transcyclohexyl nicotinic acid riboside (NaR) dimer was administered by oral gavage at a dose of 500 mg/kg in an Ethanol/PBS, pH 7.4/PEG400 (10/30/60) vehicle. The dosing volume was 5 ml/kg at a solution concentration of 100 mg/ml. The solution concentration was increased for the presence of counterion.
(§2) Animals were fasted for 16 hours prior to dosing. Samples were collected pre-dose and at 0.25, 0.75, 1, 2, 4, 8 and 24 hr post dosing. Following euthanasia, the entire liver and skeletal muscle (gastrocnemius with attached soleus muscle, bilateral) were rinsed with 0.9% saline, and frozen for later bioanalysis. Samples were maintained frozen at −80° C. until bioanalysis.
(§3) Samples were thawed, homogenized, extracted and analyzed by LC-MS on the same day. The LC used was a Shimadzu Nexera UPLC, and the mass spectrometer was an AB Sciex Qtrap 6500. Specimens were analyzed for levels of administered compound (transcyclohexyl NaR dimer), as well as for levels of NAD, NAAD, NAM, and NMN by the method of standard addition, to detect alterations from the basal levels of the analytes. Calibration standards for quantifying administered compound were prepared using transcyclohexyl NaR dimer in mouse liver or skeletal muscle homogenates. Corresponding standards for quantifying other metabolites were also prepared. Data are calculated as the mean concentration from n=6 animals per time point.

[2] = tested on: NAD, NAAD, NAM, and NMN levels in skeletal muscle; assay: PK/PD duration of effect study, single oral gavage dose: NAD, NAAD, NAM and NMN levels in skeletal muscle; parameters: key to NAAD concentration: BQL: Below quantitation limit; BDL: Below Detection Limit, No Peak Detected; settings: for NAAD concentration: pre-dose BDL
Description: as §1, §2, §3

[3] = PK/PD duration of effect study, single oral gavage dose: administered compound level in liver
Description: as §1, §2, §3

[4] = 0.25 hr after 500 mg/kg oral gavage
[5] = 1 hr after 500 mg/kg oral gavage
[6] = 2 hr after 500 mg/kg oral gavage
[7] = 24 hr after 500 mg/kg oral gavage

- transcyclohexyl NaR dimer concentration [1, 4]: 0.0142 mmol/kg
- transcyclohexyl NaR dimer concentration [1, 5]: 0.00109 mmol/kg
- transcyclohexyl NaR dimer concentration [1, 6]: BQL
- transcyclohexyl NaR dimer concentration ([1]; 4 hr after 500 mg/kg oral gavage): BQL
- transcyclohexyl NaR dimer concentration ([1]; 8 hr after 500 mg/kg oral gavage): BQL
- transcyclohexyl NaR dimer concentration [1, 7]: BQL
- concentration at 0.25 h ([1]; C57BL/6, mouse, 0.25 hr after 500 mg/kg oral gavage, read-out: transcyclohexyl NaR dimer concentration): 12000 ng/g
- concentration at 1 h ([1]; C57BL/6, mouse, 1 hr after 500 mg/kg oral gavage, read-out: transcyclohexyl NaR dimer concentration): 921 ng/g
- % AUC Extrap of transcyclohexyl NaR dimer ([3]; 500 mg/kg oral gavage): 0.00%
- AUC(0-x) of transcyclohexyl NaR dimer ([3]; 500 mg/kg oral gavage): 3.05 µg·h/g
- AUC(0-∞) of transcyclohexyl NaR dimer ([3]; 500 mg/kg oral gavage): 3.05 µg·h/g
- transcyclohexyl NaR dimer concentration ([3]; 0.25 hr after 500 mg/kg oral gavage, pre-dose BQL): 0.0125 mmol/kg
SMILES: CC(=O)OC[C@H]1O[C@@H]([n+]2cccc(C(=O)O[C@H]3CC[C@H](OC(=O)c4ccc[n+]([C@@H]5O[C@H](COC(C)=O)[C@@H](OC(C)=O)[C@H]5OC(C)=O)c4)CC3)c2)[C@H](OC(C)=O)[C@@H]1OC(C)=O [transcyclohexyl NaR dimer, Transcyclohexyl nicotinic acid riboside (NaR) dimer]
- NMN concentration ([2]; 0.25 hr after 500 mg/kg oral gavage, pre-dose 0.00225): 0.002 mmol/kg
- NAM concentration ([2]; 0.25 hr after 500 mg/kg oral gavage, pre-dose 0.159): 0.161 mmol/kg
- NMN concentration ([2]; 0.25 hr after 500 mg/kg oral gavage, pre-dose 0.752): 0.667 µg/g
- NAD concentration ([2]; 0.25 hr after 500 mg/kg oral gavage, pre-dose 0.781): 0.826 mmol/kg
- NAM concentration ([2]; 0.25 hr after 500 mg/kg oral gavage, pre-dose 19.4): 19.7 µg/g
- NAD concentration ([2]; 0.25 hr after 500 mg/kg oral gavage, pre-dose 518): 548 µg/g
- NAAD concentration [2, 4]: BDL
- NMN concentration ([2]; 0.75 hr after 500 mg/kg oral gavage, pre-dose 0.00225): 0.00196 mmol/kg
- NAM concentration ([2]; 0.75 hr after 500 mg/kg oral gavage, pre-dose 0.159): 0.208 mmol/kg
- NMN concentration ([2]; 0.75 hr after 500 mg/kg oral gavage, pre-dose 0.752): 0.656 µg/g
- NAD concentration ([2]; 0.75 hr after 500 mg/kg oral gavage, pre-dose 0.781): 0.861 mmol/kg
- NAM concentration ([2]; 0.75 hr after 500 mg/kg oral gavage, pre-dose 19.4): 25.3 µg/g
- NAD concentration ([2]; 0.75 hr after 500 mg/kg oral gavage, pre-dose 518): 571 µg/g
- NAAD concentration ([2]; 0.75 hr after 500 mg/kg oral gavage): BDL
- NMN concentration ([2]; 1 hr after 500 mg/kg oral gavage, pre-dose 0.00225): 0.00173 mmol/kg
- NAM concentration ([2]; 1 hr after 500 mg/kg oral gavage, pre-dose 0.159): 0.184 mmol/kg
- NMN concentration ([2]; 1 hr after 500 mg/kg oral gavage, pre-dose 0.752): 0.579 µg/g
- NAD concentration ([2]; 1 hr after 500 mg/kg oral gavage, pre-dose 0.781): 0.720 mmol/kg
- NAM concentration ([2]; 1 hr after 500 mg/kg oral gavage, pre-dose 19.4): 22.4 µg/g
- NAD concentration ([2]; 1 hr after 500 mg/kg oral gavage, pre-dose 518): 478 µg/g
- NAAD concentration [2, 5]: BDL
- NMN concentration ([2]; 2 hr after 500 mg/kg oral gavage, pre-dose 0.00225): 0.00191 mmol/kg
- NAM concentration ([2]; 2 hr after 500 mg/kg oral gavage, pre-dose 0.159): 0.0918 mmol/kg
- NMN concentration ([2]; 2 hr after 500 mg/kg oral gavage, pre-dose 0.752): 0.639 µg/g
- NAD concentration ([2]; 2 hr after 500 mg/kg oral gavage, pre-dose 0.781): 0.875 mmol/kg
- NAM concentration ([2]; 2 hr after 500 mg/kg oral gavage, pre-dose 19.4): 11.2 µg/g
- NAD concentration ([2]; 2 hr after 500 mg/kg oral gavage, pre-dose 518): 581 µg/g
- NAAD concentration [2, 6]: BDL
- NMN concentration ([2]; 4 hr after 500 mg/kg oral gavage, pre-dose 0.00225): 0.00222 mmol/kg
- NAM concentration ([2]; 4 hr after 500 mg/kg oral gavage, pre-dose 0.159): 0.166 mmol/kg
- NMN concentration ([2]; 4 hr after 500 mg/kg oral gavage, pre-dose 0.752): 0.740 µg/g
- NAD concentration ([2]; 4 hr after 500 mg/kg oral gavage, pre-dose 0.781): 0.726 mmol/kg
- NAM concentration ([2]; 4 hr after 500 mg/kg oral gavage, pre-dose 19.4): 20.2 µg/g
- NAD concentration ([2]; 4 hr after 500 mg/kg oral gavage, pre-dose 518): 482 µg/g
- NMN concentration ([2]; 8 hr after 500 mg/kg oral gavage, pre-dose 0.00225): 0.00245 mmol/kg
- NAM concentration ([2]; 8 hr after 500 mg/kg oral gavage, pre-dose 0.159): 0.170 mmol/kg
- NMN concentration ([2]; 8 hr after 500 mg/kg oral gavage, pre-dose 0.752): 0.818 µg/g
- NAD concentration ([2]; 8 hr after 500 mg/kg oral gavage, pre-dose 0.781): 0.648 mmol/kg
- NAM concentration ([2]; 8 hr after 500 mg/kg oral gavage, pre-dose 19.4): 20.8 µg/g
- NAD concentration ([2]; 8 hr after 500 mg/kg oral gavage, pre-dose 518): 430 µg/g
- NMN concentration ([2]; 24 hr after 500 mg/kg oral gavage, pre-dose 0.00225): 0.00199 mmol/kg
- NAM concentration ([2]; 24 hr after 500 mg/kg oral gavage, pre-dose 0.159): 0.155 mmol/kg
- NMN concentration ([2]; 24 hr after 500 mg/kg oral gavage, pre-dose 0.752): 0.665 µg/g
- NAD concentration ([2]; 24 hr after 500 mg/kg oral gavage, pre-dose 0.781): 0.635 mmol/kg
- NAM concentration ([2]; 24 hr after 500 mg/kg oral gavage, pre-dose 19.4): 18.9 µg/g
- NAD concentration ([2]; 24 hr after 500 mg/kg oral gavage, pre-dose 518): 421 µg/g
- NAAD concentration [2, 7]: BDL
